Data reported in patent US9938279B2, “Method for treating disease or condition susceptible to amelioration by AMPK activators and compounds of formula which are useful to activate AMP-activated protein kinase (AMPK)” (ENERGENESIS BIOMEDICAL CO., LTD, priority 2013, dated 2018).

Key:
AMPK [1] = experiment: AMPK activation assay (western blot phospho-AMPK Thr172) in C2C12; assay type: cell-based, mouse; conditions: C2C12 cells, 30 min treatment
Outline: (§1)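 Mouse C2C12, mouse 3T3-L1 and human Hep G2 cells in high-glucose DMEM/10% FBS were treated with compounds for 30 min, 24 h after plating. Lysates were western-blotted for phospho-AMPK (Thr172) and total AMPK, ECL-detected, and bands quantified by densitometry.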

AMPK [2] = experiment: AMPK activation assay (western blot phospho-AMPK Thr172) in 3T3-L1; assay type: cell-based, mouse; conditions: 3T3-L1 cells, 30 min treatment
Outline: as §1

muscle cell C2C12 = experiment: Glucose uptake in vitro (fluorescent glucose analog 2-NBDG); assay type: cell-based, mouse; conditions: 30 min treatment, mean±SEM of three experiments
Procedure: Effects of representative compounds on glucose uptake were analyzed in muscle cell C2C12 by using fluorescent glucose analog (2-NBDG, Molecular Probes). C2C12 were treated with selected novel AMPK activator for 30 min at 37° C. then exposed to 500 μM of fluorescent glucose analog. After 5 min incubation at room temperature, cells were washed three times with Kreb-Hepes buffered solution and fix in 70% alcohol. The fluorescence of glucose analog in cells was detected using a Fluorescence Microplate Reader System at 480-nm excitation and 530-nm emission wavelength.
Data are presented as the mean±SEM of three independent experiments.

AMPK [3] = experiment: AMPK activation assay (western blot phospho-AMPK Thr172) in Hep G2; assay type: cell-based, human; conditions: Hep G2 cells, 30 min treatment
Outline: as §1

Oc1nc(NC2CCCCC2)nc2nc[nH]c12 [2-cyclohexylamino-6-hydroxypurine] was tested, and the “AMPK activation (% to control) C2C12” value (AMPK [1]; 1 microM) was 108 % to control, the “AMPK activation (% to control) C2C12” value (AMPK [1]; 10 microM) was 118 % to control and the “AMPK activation (% to control) C2C12” value (AMPK [1]; 100 microM) was 209 % to control. For the same compound, the “AMPK activation (% to control) C2C12” value (AMPK [1]; 200 microM) was 321 % to control, the “AMPK activation (% to control) 3T3-L1” value (AMPK [2]; 1 microM) was 118 % to control and the “AMPK activation (% to control) 3T3-L1” value (AMPK [2]; 10 microM) was 172 % to control. For the same compound, the “AMPK activation (% to control) 3T3-L1” value (AMPK [2]; 100 microM) was 283 % to control, the “AMPK activation (% to control) 3T3-L1” value (AMPK [2]; 200 microM) was 375 % to control and the “Glucose uptake (% to control)” value (muscle cell C2C12; C2C12, 1 microM) was 108 ± 2.1 % to control. The “Glucose uptake (% to control)” value (muscle cell C2C12; C2C12, 10 microM) was 195 ± 11.9 % to control, the “Glucose uptake (% to control)” value (muscle cell C2C12; C2C12, 100 microM) was 251 ± 16.2 % to control and the “Glucose uptake (% to control)” value (muscle cell C2C12; C2C12, 600 microM) was 311 ± 10.7 % to control. The “AMPK activation (% to control) Hep G2” value (AMPK [3]; 1 microM) was 111 % to control, the “AMPK activation (% to control) Hep G2” value (AMPK [3]; 10 microM) was 137 % to control and the “AMPK activation (% to control) Hep G2” value (AMPK [3]; 100 microM) was 248 % to control. For the same compound, the “AMPK activation (% to control) Hep G2” value (AMPK [3]; 200 microM) was 351 % to control.
For Cc1ccc(CNc2ncnc3nc[nH]c23)cc1 [6-(4-methylbenzylamino)purine], the “AMPK activation (% to control) C2C12” value (AMPK [1]; 1 microM) was 112 % to control, the “AMPK activation (% to control) C2C12” value (AMPK [1]; 10 microM) was 158 % to control and the “AMPK activation (% to control) C2C12” value (AMPK [1]; 100 microM) was 270 % to control. The “AMPK activation (% to control) C2C12” value (AMPK [1]; 200 microM) was 358 % to control, the “AMPK activation (% to control) 3T3-L1” value (AMPK [2]; 1 microM) was 110 % to control and the “AMPK activation (% to control) 3T3-L1” value (AMPK [2]; 10 microM) was 163 % to control. For the same compound, the “AMPK activation (% to control) 3T3-L1” value (AMPK [2]; 100 microM) was 259 % to control, the “AMPK activation (% to control) 3T3-L1” value (AMPK [2]; 200 microM) was 347 % to control and the “Glucose uptake (% to control)” value (muscle cell C2C12; C2C12, 1 microM) was 114 ± 9.2 % to control. The “Glucose uptake (% to control)” value (muscle cell C2C12; C2C12, 10 microM) was 205 ± 14.6 % to control, the “Glucose uptake (% to control)” value (muscle cell C2C12; C2C12, 100 microM) was 281 ± 11.5 % to control and the “Glucose uptake (% to control)” value (muscle cell C2C12; C2C12, 600 microM) was 309 ± 9.1 % to control. For the same compound, the “AMPK activation (% to control) Hep G2” value (AMPK [3]; 1 microM) was 106 % to control, the “AMPK activation (% to control) Hep G2” value (AMPK [3]; 10 microM) was 121 % to control and the “AMPK activation (% to control) Hep G2” value (AMPK [3]; 100 microM) was 245 % to control. The “AMPK activation (% to control) Hep G2” value (AMPK [3]; 200 microM) was 348 % to control.
With Oc1ncnc2nc[nH]c12 [6-hydroxypurine] the “AMPK activation (% to control) C2C12” value (AMPK [1]; 1 microM) was 120 % to control, the “AMPK activation (% to control) C2C12” value (AMPK [1]; 10 microM) was 148 % to control and the “AMPK activation (% to control) C2C12” value (AMPK [1]; 100 microM) was 233 % to control. For the same compound, the “AMPK activation (% to control) C2C12” value (AMPK [1]; 200 microM) was 341 % to control, the “AMPK activation (% to control) 3T3-L1” value (AMPK [2]; 1 microM) was 118 % to control and the “AMPK activation (% to control) 3T3-L1” value (AMPK [2]; 10 microM) was 155 % to control. For the same compound, the “AMPK activation (% to control) 3T3-L1” value (AMPK [2]; 100 microM) was 198 % to control, the “AMPK activation (% to control) 3T3-L1” value (AMPK [2]; 200 microM) was 325 % to control and the “Glucose uptake (% to control)” value (muscle cell C2C12; C2C12, 1 microM) was 109 ± 2.2 % to control. The “Glucose uptake (% to control)” value (muscle cell C2C12; C2C12, 10 microM) was 242 ± 23.7 % to control, the “Glucose uptake (% to control)” value (muscle cell C2C12; C2C12, 100 microM) was 289 ± 21.4 % to control and the “Glucose uptake (% to control)” value (muscle cell C2C12; C2C12, 600 microM) was 318 ± 21.2 % to control. For the same compound, the “AMPK activation (% to control) Hep G2” value (AMPK [3]; 1 microM) was 114 % to control, the “AMPK activation (% to control) Hep G2” value (AMPK [3]; 10 microM) was 146 % to control and the “AMPK activation (% to control) Hep G2” value (AMPK [3]; 100 microM) was 165 % to control. The “AMPK activation (% to control) Hep G2” value (AMPK [3]; 200 microM) was 330 % to control.
With NC(=O)c1ncn([C@@H]2O[C@H](CO)[C@@H](O)[C@H]2O)c1N [AICAR, 5-amino-1-β-D-ribofuranosyl-imidazole-4-carboxamide, reference compound] the “AMPK activation (% to control) C2C12” value (AMPK [1]; 1200 microM) was 335 % to control, the “AMPK activation (% to control) 3T3-L1” value (AMPK [2]; 1200 microM) was 340 % to control and the “Glucose uptake (% to control)” value (muscle cell C2C12; C2C12, 1200 microM) was 264 ± 19.2 % to control. The “AMPK activation (% to control) Hep G2” value (AMPK [3]; 1200 microM) was 319 % to control.
For Cc1c[nH]c(=O)[nH]c1=O [Thymine, thymine], the “AMPK activation (% to control) C2C12” value (AMPK [1]; 1 microM) was 117 % to control, the “AMPK activation (% to control) C2C12” value (AMPK [1]; 10 microM) was 147 % to control and the “AMPK activation (% to control) C2C12” value (AMPK [1]; 100 microM) was 266 % to control. For the same compound, the “AMPK activation (% to control) C2C12” value (AMPK [1]; 200 microM) was 354 % to control, the “AMPK activation (% to control) 3T3-L1” value (AMPK [2]; 1 microM) was 109 % to control and the “AMPK activation (% to control) 3T3-L1” value (AMPK [2]; 10 microM) was 129 % to control. For the same compound, the “AMPK activation (% to control) 3T3-L1” value (AMPK [2]; 100 microM) was 235 % to control, the “AMPK activation (% to control) 3T3-L1” value (AMPK [2]; 200 microM) was 318 % to control and the “Glucose uptake (% to control)” value (muscle cell C2C12; C2C12, 1 microM) was 110 ± 3.2 % to control. The “Glucose uptake (% to control)” value (muscle cell C2C12; C2C12, 10 microM) was 167 ± 15.1 % to control, the “Glucose uptake (% to control)” value (muscle cell C2C12; C2C12, 100 microM) was 215 ± 18.2 % to control and the “Glucose uptake (% to control)” value (muscle cell C2C12; C2C12, 600 microM) was 283 ± 22.3 % to control. The “AMPK activation (% to control) Hep G2” value (AMPK [3]; 1 microM) was 110 % to control, the “AMPK activation (% to control) Hep G2” value (AMPK [3]; 10 microM) was 113 % to control and the “AMPK activation (% to control) Hep G2” value (AMPK [3]; 100 microM) was 218 % to control. The “AMPK activation (% to control) Hep G2” value (AMPK [3]; 200 microM) was 303 % to control.
